Drawing on ChEMBL document CHEMBL1127782, “Non-peptidic inhibitors of human leukocyte elastase. 1. The design and synthesis of pyridone-containing inhibitors” (J Med Chem, 1994), this text covers Ki for 22 compounds.

In the assay the target is T1, Neutrophil elastase (Homo sapiens, UniProt P08246).
T1 sequence (P08246 whole entry): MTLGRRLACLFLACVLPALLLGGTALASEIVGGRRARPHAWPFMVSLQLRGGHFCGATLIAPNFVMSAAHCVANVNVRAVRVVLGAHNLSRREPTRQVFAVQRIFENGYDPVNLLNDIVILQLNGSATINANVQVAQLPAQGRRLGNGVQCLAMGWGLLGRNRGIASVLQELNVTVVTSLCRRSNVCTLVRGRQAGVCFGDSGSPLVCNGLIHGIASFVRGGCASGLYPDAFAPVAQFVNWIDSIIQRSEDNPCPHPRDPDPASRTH
The assay can be described thus: The compound was tested in vitro for ability to inhibit human leukocyte elastase activity.
By Ki is commonly meant the equilibrium dissociation constant of an inhibitor or competing ligand from its target. Lower therefore signals a stronger hold on the target. In turn, `CC(C)C(NC(=O)Cn1cc(Cc2cccc(O)c2)cc(NC(=O)OCc2ccccc2)c1=O)C(=O)C(F)(F)F` (configuration not stated) gave a Ki of 89 nM.

`CC(C)C(NC(=O)Cn1cc(Cc2cccc(NC(=O)C(F)(F)F)c2)cc(NC(=O)OCc2ccccc2)c1=O)C(=O)C(F)(F)F` (configuration not stated) showed a Ki of 36 nM.

On to `CC(C)C(NC(=O)Cn1cc(Cc2ccccc2)cc(NC(=O)C(N)=O)c1=O)C(=O)C(F)(F)F` (configuration not stated), for which the Ki was found to be 51 nM.

For `CC(C)C(NC(=O)Cn1cccc(N)c1=O)C(=O)C(F)(F)F` (configuration not stated), the affinity, expressed as Ki, was 2700 nM. Against the preceding compound, the Ki is about 53-fold higher.

Take `CC(C)C(NC(=O)Cn1cccc(NC(=O)C(N)=O)c1=O)C(=O)C(F)(F)F` (configuration not stated): the Ki amounted to 320 nM.

In the case of `CC(C)C(NC(=O)Cn1cc(Cc2ccc(OC(=O)C(C)(C)C)cc2)cc(NC(=O)OCc2ccccc2)c1=O)C(=O)C(F)(F)F` (configuration not stated), the Ki was determined as 32 nM.

The compound `CCOC(=O)CC(=O)Nc1cccn(CC(=O)NC(C(=O)C(F)(F)F)C(C)C)c1=O` (configuration not stated) came in with a Ki of 3400 nM. This Ki is about 110-fold higher than that of the compound before.

`COC(=O)c1ccc(Cc2cc(NC(=O)OCc3ccccc3)c(=O)n(CC(=O)NC(C(=O)C(F)(F)F)C(C)C)c2)cc1` (configuration not stated) returned a Ki of 88 nM.

On to `COC(=O)C(=O)Nc1cccn(CC(=O)NC(C(=O)C(F)(F)F)C(C)C)c1=O` (configuration not stated), for which the affinity, expressed as Ki, was 500 nM.

Compound `CC(C)C(NC(=O)Cn1cc(Cc2ccc(F)cc2)cc(NC(=O)OCc2ccccc2)c1=O)C(=O)C(F)(F)F` (configuration not stated) showed a Ki of 71 nM.

`CC(C)C(NC(=O)Cn1cc(Cc2ccc(C(F)(F)F)cc2)cc(NC(=O)OCc2ccccc2)c1=O)C(=O)C(F)(F)F` (configuration not stated) registered a Ki of 47 nM. This Ki lies about 1.5-fold lower than the previous one.

In the case of `COC(=O)C(=O)Nc1cc(Cc2ccccc2)cn(CC(=O)NC(C(=O)C(F)(F)F)C(C)C)c1=O` (configuration not stated), the affinity corresponds to a Ki of 70 nM.

`CC(=O)Oc1cccc(Cc2cc(NC(=O)OCc3ccccc3)c(=O)n(CC(=O)NC(C(=O)C(F)(F)F)C(C)C)c2)c1` (configuration not stated) had a Ki of 42 nM.

Consider `CC(C)C(NC(=O)Cn1cc(Cc2cccc(F)c2)cc(NC(=O)OCc2ccccc2)c1=O)C(=O)C(F)(F)F` (configuration not stated), for which affinity was put at a Ki of 87 nM.

Compound `CC(C)C(NC(=O)Cn1cc(Cc2ccccc2)cc(NC(=O)OCc2ccccc2)c1=O)C(=O)C(F)(F)F` (configuration not stated) displayed a Ki of 40 nM. This Ki is about 2.2-fold lower than that of the compound before.

In the case of `CC(C)C(NC(=O)Cn1cccc(NC(=O)C(=O)O)c1=O)C(=O)C(F)(F)F` (configuration not stated), affinity was put at a Ki of 350 nM.

Turning to `CC(C)C(NC(=O)Cn1cccc(NC(=O)CC(=O)O)c1=O)C(=O)C(F)(F)F` (configuration not stated), the affinity, expressed as Ki, was 2600 nM.

Take `CC(C)C(NC(=O)Cn1cccc([N+](=O)[O-])c1=O)C(=O)C(F)(F)F` (configuration not stated): affinity was put at a Ki of 15000 nM.

On to `CC(C)C(NC(=O)Cn1cc(Cc2cccc(OC(=O)C(C)(C)C)c2)cc(NC(=O)OCc2ccccc2)c1=O)C(=O)C(F)(F)F` (configuration not stated), for which the affinity, expressed as Ki, was 12 nM.

For the compound `CC(C)C(NC(=O)Cn1cc(Cc2ccc(O)cc2)cc(NC(=O)OCc2ccccc2)c1=O)C(=O)C(F)(F)F` (configuration not stated), the affinity corresponds to a Ki of 34 nM.

`CC(C)C(NC(=O)Cn1cc(Cc2ccccc2)cc(NC(=O)C(=O)O)c1=O)C(=O)C(F)(F)F` (configuration not stated) had a Ki of 48 nM.

Turning to `CC(C)C(NC(=O)Cn1cccc(NC(=O)OCc2ccccc2)c1=O)C(=O)C(F)(F)F` (configuration not stated), the affinity, expressed as Ki, was 280 nM.
